This note sets out measurements from patent US11261189B2, “Substituted 2,4 diamino-quinoline as new medicament for fibrosis, autophagy and cathepsins B (CTSB), L (CTSL) and D (CTSD) related diseases” (Genoscience Pharma, priority 2018, dated 2022).

The subject of test [1] is diethyl nitrosamine (DEN) cirrhotic rat model of liver fibrosis. As to the kind of experiment: DEN induced cirrhosis in rats, study 2: Sirius red quantification of liver fibrosis. It is filed as in vivo. As to the method:
A second in vivo experiment, with the same diethyl nitrosamine (DEN) cirrhotic rat animal model of liver fibrosis, was performed including compound 2-2 (base form of compound 2-3) with discontinued oral dosing schedule and compound 5-3 with daily oral exposure. Compounds 2-2 and 5-3 were administered p.o. by gavage (oral gavage) once daily during 7 weeks.
Rats were treated with DEN for 13 weeks (intra-peritoneal injections (i.p.) of 50 mg/kg/week) and then treated according to the Table 10 dosage schedule during 7 weeks. At the end of the study, all animals were sacrificed using CO2 and rat livers were collected for analysis. The quantification of the liver fibrotic tissue was evaluated by Sirius red staining of rat liver sections.
Group 1 contained 6 animals which were daily dosed (q.d.) by oral gavage (per os, p.o.) with the vehicle during 7 weeks.
Group 2 contained 8 animals and the corresponding animals were daily dosed (q.d.) by oral gavage (per os, p.o.) with compound 2-2 during 4 weeks at 20 mg/kg/day and then during 3 weeks at 20 mg/kg every 2 days (q.o.d.: quaque altera die, one day treated, on day untreated).
Group 3 contained 8 animals and the corresponding animals were daily dosed (q.d.) by oral gavage (per os, p.o.) with compound 2-2 during 3 weeks at 20 mg/kg/day, then 2 weeks of treatment free period, and were then daily dosed (q.d.) by oral gavage (per os, p.o.) with compound 2-2 during 2 weeks at 20 mg/kg/day.
Group 4 contained 8 animals and the corresponding animals were daily dosed (q.d.) by oral gavage (per os, p.o.) with compound 5-3 during 4 weeks at 20 mg/kg/day, and were then daily dosed (q.d.) by oral gavage (per os, p.o.) with compound 5-3 during 3 weeks at 15 mg/kg/day.
Compound 2-2 and 5-3 were formulated in water for injection acidified with hydrochloric acid to pH 4.

For test [2], the system named is autophagy flux (LC3-II) in RBE cell line. As to the kind of experiment: Autophagy flux, LC3-II immunoblot with/without Bafilomycin, RBE cell line. It is filed as cell-based. The following applies: 24 hours of treatment. As for the experimental part: The capacity of compound 2-2 to modulate the cellular autophagy processes was also evaluated in the intrahepatic cholangiocarcinoma cell line RBE.
The RBE cell line was maintained in RPMI (Roswell Park Memorial Institute) 1640 (Cat #L0498-500, Dutscher) containing 1% penicillin-streptomycin (Cat #P06-07100, Dutscher) and 10% FBS (Cat #SV30160.03C, Dutscher). RBE Cells line were cultured at 37° C. with 5% CO2.
The day before the experiment, 6-well plates with 125,000 cells in 1.8 mL of medium per well were prepared.
Compound 2-2 was dissolved with filtrated DMSO to make a 10 mM stock solution and serial working solutions (10× solutions) at 9 μM, 18 μM and 36 μM were prepared with the diluent (=culture medium with 0.12% DMSO) to maintain a constant percentage of DMSO. Bafilomycin [CAS 88899-55-2] (Cat #B1793-10UG, Sigma) was dissolved with DMSO to make a 160.6 μM stock solution and a working solution (200× solution) was prepared with the culture medium at 20.1 μM. A “Baf diluent” solution corresponding to the dilution of DMSO in the Bafilomycin 200× solution (culture medium with 12.5% DMSO) is also prepared. […]
After 24 hours of cell line treatment, the medium was removed from each well. […] Total protein concentration was assessed using the BCA reagent (Cat #23227, ThermoFischer) and cellular lysates were stored at −80° C. until western-blot analysis. […]
On the technique in general: Immunoblotting shows a protein as a band on a membrane.

`CC(C)(C)NC1CCN(c2cc(NCc3ccc(Cl)cc3)nc3ccccc23)CC1` [2-2, 2-(4-chlorobenzylamino)-4-(4-tert-butylaminopiperidin-1-yl)-quinoline]: the “reduction of the level of collagen fibers deposition (Sirius red) compared to the control group” value in test [1] (group 2 (20 qd/qod): 20 mg/kg p.o. q.d. 4 weeks then q.o.d. 3 weeks, after 13 weeks DEN, p=0.04) worked out at 23%; in test [1] (group 3 (20 3WON/2WOFF/2WON): 20 mg/kg p.o. q.d. 3 weeks, 2 weeks off, q.d. 2 weeks, p=0.01), 29%. In test [2], the “accumulation of the LC3-II form” value was “significantly induced a dose-dependent accumulation of the LC3-II form”. Also, in test [2], the “autophagic flux (LC3-II Baf+/Baf− ratio)” value is recorded as “induced an inhibition of the autophagic flux”.
